Laboratory results published in US10213429B2, “Imidazo-pyrazinyl derivatives useful as soluble guanylate cyclase activators” (Merck Sharp & Dohme Corp., priority 2015, dated 2019).

Tests used:
sGC α1/β1 heterodimer = target: T1, sGC α1/β1 heterodimer (Homo sapiens, UniProt Q02108+Q02153); assay: Cell-Based sGC Functional Assay (CASA Assay), cGMP by HTRF in CHO-K1/sGC cells; settings: for Emax: CHO-K1, percent activation relative to maximum cGMP production of Compound A (= 100%), read-out: % Act.; for EC50: cGMP production, 1 hr at 37° C., 4P fit, presence or absence of 1 μM DETA-NO not given, read-out: IP (nM) (inflection point)
T1 construct: expressed in transfected cells; host or cells: CHO-K1 (clone #7, CHO-K1/sGC)
T1 sequence (Q02108 1-690): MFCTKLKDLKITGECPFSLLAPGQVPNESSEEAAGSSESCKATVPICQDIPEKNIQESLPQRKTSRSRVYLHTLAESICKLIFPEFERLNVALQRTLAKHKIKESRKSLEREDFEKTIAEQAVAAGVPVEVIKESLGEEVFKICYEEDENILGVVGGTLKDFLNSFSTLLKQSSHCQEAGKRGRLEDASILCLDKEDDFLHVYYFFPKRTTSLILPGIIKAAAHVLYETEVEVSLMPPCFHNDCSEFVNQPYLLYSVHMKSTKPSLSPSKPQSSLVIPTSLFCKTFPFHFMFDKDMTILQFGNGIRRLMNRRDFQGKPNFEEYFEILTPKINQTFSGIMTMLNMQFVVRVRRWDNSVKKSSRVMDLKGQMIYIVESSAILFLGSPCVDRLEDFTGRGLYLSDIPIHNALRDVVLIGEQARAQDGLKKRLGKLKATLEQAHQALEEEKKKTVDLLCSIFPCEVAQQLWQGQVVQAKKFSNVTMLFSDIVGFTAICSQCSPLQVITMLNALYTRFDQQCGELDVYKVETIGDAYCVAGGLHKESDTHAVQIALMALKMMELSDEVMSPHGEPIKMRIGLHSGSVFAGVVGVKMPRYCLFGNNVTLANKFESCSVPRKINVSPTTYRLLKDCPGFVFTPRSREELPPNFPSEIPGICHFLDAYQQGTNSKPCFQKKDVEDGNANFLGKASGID
T1 sequence (Q02153 1-619): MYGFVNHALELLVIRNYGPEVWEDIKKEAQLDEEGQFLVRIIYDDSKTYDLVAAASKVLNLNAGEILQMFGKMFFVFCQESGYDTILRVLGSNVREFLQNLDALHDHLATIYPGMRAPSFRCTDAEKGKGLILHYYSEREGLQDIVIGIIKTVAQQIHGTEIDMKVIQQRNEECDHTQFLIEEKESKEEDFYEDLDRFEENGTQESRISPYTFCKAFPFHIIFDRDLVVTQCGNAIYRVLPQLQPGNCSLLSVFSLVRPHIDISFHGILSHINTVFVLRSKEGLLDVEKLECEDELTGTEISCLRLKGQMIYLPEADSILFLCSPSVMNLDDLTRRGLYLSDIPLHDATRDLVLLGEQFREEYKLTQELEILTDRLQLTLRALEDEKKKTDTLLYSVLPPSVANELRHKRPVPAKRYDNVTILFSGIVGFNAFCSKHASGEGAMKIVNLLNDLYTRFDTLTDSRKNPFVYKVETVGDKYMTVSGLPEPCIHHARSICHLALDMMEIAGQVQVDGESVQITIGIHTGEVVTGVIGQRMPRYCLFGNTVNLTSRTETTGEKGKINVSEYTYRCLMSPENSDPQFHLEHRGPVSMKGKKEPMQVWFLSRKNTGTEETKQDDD
Outline: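 CHO-K1 cells stably expressing human sGC α1/β1, in EBSS buffer with 5 mM MgCl2, 10 mM HEPES, 0.05% BSA and 0.5 mM IBMX, incubated with compound (2.5% DMSO) ± 1 μM DETA-NO, 1 h, 37 °C. Intracellular cGMP read by HTRF; activity as % of reference activator maximum, IP from 4-parameter fit.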

[1] = tested on: Spontaneously hypertensive rats (SHR); assay: Acute Efficacy in Spontaneously Hypertensive Rats (SHR), telemetry blood pressure; assay type: in vivo, rat; settings: SHR male
Text: Acute Efficacy in Spontaneously Hypertensive Rats (SHR)
Spontaneously hypertensive rats (SHR, male, Charles River) were implanted with DSI TA11PA-C40 telemetry device (Data Sciences, Inc., St. Paul, Minn.) under isoflurane or ketamine/metomidine anesthesia. The telemetry unit catheter was inserted into the descending aorta via the femoral artery and the telemetry device was implanted subcutaneously in the left flank area. Animals were allowed to recover from surgery for 14 days before the start of any studies. Blood pressure, heart rate, and activity signals from conscious, freely moving rats were recorded continuously for 30 seconds every 10 minutes. On the day prior to administration of compound, a single oral dose of vehicle (10% transcutol/20% Cremophor/70% water) was administered to all animals to establish baseline control data. The blood pressure lowering efficacy of compound (PO) or vehicle was evaluated following a single oral gavage. Data were collected as hourly averages, and changes in blood pressure were calculated by subtracting control baseline data on an hourly basis. Animals were maintained on normal diet with a 12 hour light-dark cycle.
Maximum peak decreases of systolic blood pressure (SBP) in SHR at a particular P.O. dose (mpk milligrams per kilogram) for the following representative compounds are provided. • Category A=SBP in SHRs<20 mmHg; Category B=SBP in SHRs 20-40 mmHg; • Category C=SBP in SHRs>40 mmHg

Emax (sGC α1/β1 heterodimer) [%]	EC50 (sGC α1/β1 heterodimer) [nM]	Compound	Cat. (maximum peak decrease of systolic blood pressure (SBP) in SHR) ([1]; single oral dose 1.0 mpk P.O.)	Cat. (maximum peak decrease of systolic blood pressure (SBP) in SHR) ([1]; single oral dose 3.0 mpk P.O.)	Cat. (maximum peak decrease of systolic blood pressure (SBP) in SHR) ([1]; single oral dose 0.3 mpk P.O.)	Cat. (maximum peak decrease of systolic blood pressure (SBP) in SHR) ([1]; single oral dose 2.0 mpk P.O.)
101	92	CCCc1nc(-c2ncc3c(n2)NC(=O)C3(C)c2ccc(Cl)cc2)cn2ccnc12 (stereo not drawn) [Example 39A, 5-(4-chlorophenyl)-5-methyl-2-(8-propylimidazo[1,2-a]pyrazin-6-yl)-5H-pyrrolo[2,3-d]pyrimidin-6(7H)-one]	A (Category A=SBP in SHRs<20 mmHg)	–	–	–
91	68	CC1(c2ccc(Cl)cn2)C(=O)Nc2nc(-c3cn4ccnc4c(CCCC(F)(F)F)n3)ncc21 (stereo not drawn) [Example 59A, 5-(5-chloropyridin-2-yl)-5-methyl-2-(8-(4,4,4-trifluorobutyl)imidazo[1,2-a]pyrazin-6-yl)-5H-pyrrolo[2,3-d]pyrimidin-6(7H)-one]	B (Category B=SBP in SHRs 20-40 mmHg)	–	–	–
90	294	CC1(c2ccc(Cl)cn2)C(=O)Nc2nc(-c3cn4ccnc4c(CCC(F)(F)C(F)(F)F)n3)nc(O)c21 (stereo not drawn) [Example 17A, 5-(5-chloropyridin-2-yl)-4-hydroxy-5-methyl-2-(8-(3,3,4,4,4-pentafluorobutyl)imidazo[1,2-a]pyrazin-6-yl)-5H-pyrrolo[2,3-d]pyrimidin-6(7H)-one]	A (Category A=SBP in SHRs<20 mmHg)	–	–	–
82	459	CC1(c2ccc(F)cn2)C(=O)Nc2nc(-c3cn4ccnc4c(CC4CCC4)n3)nc(O)c21 (stereo not drawn) [Example 31B, 2-(8-(cyclobutylmethyl)imidazo [1,2-a]pyrazin-6-yl)-5-(5-fluoropyridin-2-yl)-4-hydroxy-5-methyl-5H-pyrrolo[2,3-d]pyrimidin-6(7H)-one]	–	B (Category B=SBP in SHRs 20-40 mmHg)	–	–
124	4	CC1(c2ccc(Cl)cn2)C(=O)Nc2nc(-c3cn4ccnc4c(Cc4ccc(F)cc4)n3)ncc21 (stereo not drawn) [Example 42A, 5-(5-chloropyridin-2-yl)-2-(8-(4-fluorobenzyl)imidazo[1,2-a]pyrazin-6-yl)-5-methyl-5H-pyrrolo[2,3-d]pyrimidin-6(7H)-one]	–	–	B (Category B=SBP in SHRs 20-40 mmHg)	–
104	144	CC1(c2ccc(F)cc2)C(=O)Nc2nc(-c3cn4ccnc4c(Cc4ccc(F)cc4)n3)nc(O)c21 (stereo not drawn) [Example 81A, 2-(8-(4-fluorobenzyl)imidazo[1,2-a]pyrazin-6-yl)-5-(4-fluorophenyl)-4-hydroxy-5-methyl-5H-pyrrolo[2,3-d]pyrimidin-6(7H)-one]	B (Category B=SBP in SHRs 20-40 mmHg)	–	–	–
125	217	CC1(c2ccc(F)cn2)C(=O)Nc2nc(-c3cn4ccnc4c(CCCC(F)(F)F)n3)ncc21 (stereo not drawn) [Example 66B, 5-(5-fluoropyridin-2-yl)-5-methyl-2-(8-(4,4,4-trifluorobutyl)imidazo[1,2-a]pyrazin-6-yl)-5H-pyrrolo[2,3-d]pyrimidin-6(7H)-one]	A (Category A=SBP in SHRs<20 mmHg)	–	–	–
115	880	CC1(c2ccc(F)cn2)C(=O)Nc2nc(-c3cn4ccnc4c(CCCC(F)(F)F)n3)nc(O)c21 (stereo not drawn) [Example 32B, 5-(5-fluoropyridin-2-yl)-4-hydroxy-5-methyl-2-(8-(4,4,4-trifluorobutyl)imidazo[1,2-a]pyrazin-6-yl)-5H-pyrrolo[2,3-d]pyrimidin-6(7H)-one]	B (Category B=SBP in SHRs 20-40 mmHg)	–	–	–
169	106	O=C1Nc2nc(-c3cn4ccnc4c(CCCC(F)(F)F)n3)nc(O)c2C1(c1ccc(Cl)cc1)C1CC1 (stereo not drawn) [Example 24B, 5-(4-chlorophenyl)-5-cyclopropyl-4-hydroxy-2-(8-(4,4,4-trifluorobutyl)imidazo[1,2-a]pyrazin-6-yl)-5H-pyrrolo[2,3-d]pyrimidin-6(7H)-one]	–	A (Category A=SBP in SHRs<20 mmHg)	–	–
188	73	CCCCc1nc(-c2ncc3c(n2)NC(=O)C3(c2ccc(Cl)cn2)C2CC2)cn2ccnc12 (stereo not drawn) [Example 55A, 2-(8-butylimidazo[1,2-a]pyrazin-6-yl)-5-(5-chloropyridin-2-yl)-5-cyclopropyl-5H-pyrrolo[2,3-d]pyrimidin-6(7H)-one]	–	–	–	B (Category B=SBP in SHRs 20-40 mmHg)
118	253	CC1(c2ccc(F)cn2)C(=O)Nc2nc(-c3cn4ccnc4c(Cc4ccc(F)cc4)n3)nc(O)c21 (stereo not drawn) [Example 6B, 2-(8-(4-fluorobenzyl)imidazo[1,2-a]pyrazin-6-yl)-5-(5-fluoropyridin-2-yl)-4-hydroxy-5-methyl-5H-pyrrolo[2,3-d]pyrimidin-6(7H)-one]	C (Category C=SBP in SHRs>40 mmHg)	–	–	–
150	114	O=C1Nc2nc(-c3cn4ccnc4c(CCCC(F)(F)F)n3)ncc2C1(c1ccc(F)c(F)c1)C1CC1 (stereo not drawn) [Example 44A, 5-cyclopropyl-5-(3,4-difluorophenyl)-2-(8-(4,4,4-trifluorobutyl)imidazo[1,2-a]pyrazin-6-yl)-5H-pyrrolo[2,3-d]pyrimidin-6(7H)-one]	B (Category B=SBP in SHRs 20-40 mmHg)	–	–	–
100	133	CCCCc1nc(-c2nc(O)c3c(n2)NC(=O)C3(C)c2ccc(F)cc2)cn2ccnc12 (stereo not drawn) [Example 79A, 2-(8-Butylimidazo[1,2-a]pyrazin-6-yl)-5-(4-fluorophenyl)-4-hydroxy-5-methyl-5H-pyrrolo[2,3-d]pyrimidin-6(7H)-one]	–	–	–	–
130	316	CC1(c2ccc(Cl)cn2)C(=O)Nc2nc(-c3cn4c(N)cnc4c(CCC(F)(F)C(F)(F)F)n3)ncc21 (stereo not drawn) [Example 87A, 2-(3-Amino-8-(3,3,4,4,4-pentafluorobutyl)imidazo[1,2-a]pyrazin-6-yl)-5-(5-chloropyridin-2-yl)-5-methyl-5H-pyrrolo[2,3-d]pyrimidin-6(7H)-one]	–	–	–	–
122	115	CCCCc1nc(-c2nc(O)c3c(n2)NC(=O)C3(c2ccc(Cl)c(F)c2)C2CC2)cn2ccnc12 (stereo not drawn) [Example 21A, 2-(8-butylimidazo[1,2-a]pyrazin-6-yl)-5-(4-chloro-3-fluorophenyl)-5-cyclopropyl-4-hydroxy-5H-pyrrolo[2,3-d]pyrimidin-6(7H)-one]	–	–	–	–
